Results: article PMC10703884, “Targeting the COMMD4–H2B protein complex in lung cancer” (British Journal of Cancer, 2023)
No end group written: not given here.

What was measured:
[1] = test system: GST-COMMD4; assay: FLAG immunoprecipitation, FLAG-H2B constructs with COMMD4; format: binding; conditions: FLAG-H2B immunoprecipitated from HEK293T cells, anti-FLAG M2 Dynabeads, 4 °C, immunoblot for GST-COMMD4 and FLAG
Method: (§1) For siRNA transfections, cells were transfected with negative control or COMMD4 siRNA #2 (CCAUGUCCCUCUCAGCAGA[dT][dT] MISSION® siRNA, Sigma-Aldrich) using RNAiMax (Life Technologies) as previously described and samples were analysed 48 to 72 h post-transfection. The H2B wild-type (FLAG-H2BWT) and mutant (FLAG-H2BMUT1) expression constructs were generated with the 10-amino acid peptide and the corresponding mutant cloned into the expression vector pCDNA3.1/(+)-N-DYK containing an N-terminal FLAG tag and a C-terminal nuclear localisation signal (AAKRVKLDS) (GenScript). A70K FLAG-COMMD4 expression construct was generated by mutating the corresponding COMMD4-FLAG construct to harbour an A70K mutation (GenScript). Cells were mock-transfected, or transfected with FLAG-H2BWT/FLAG-H2BMUT1, or COMMD4-FLAG/A70K with FuGENE® HD (Promega) using the manufacturer’s protocol and analysed 24 h post-transfection.
Co-immunoprecipitations were performed as previously summarised, using ice-cold NP40 buffer. Assays for co-immunoprecipitations were performed at 4 °C from HEK293T, transiently expressing the FLAG-H2B WT or MUT plasmid. Proteins were captured using anti-FLAG M2 Dynabeads (ThermoFisher) and washed three times in NP40 buffer prior to analysis. […]

[2] = test system: HBEC3-KT cells; assay: Clonogenic cell viability after IR, HBEC3-KT cells; format: cell-based, Human; conditions: varying IR doses, 7–10 days recovery, three independent experiments
Method: H1299, CRL5889 and H460 cells were cultured in Roswell Park Memorial Institute (RPMI) 1640 medium (Life Technologies) containing 10% foetal bovine serum (Thermo Fisher Scientific). Human bronchial epithelial cells (HBEC3-KT) were maintained in keratinocyte serum-free medium supplemented with epidermal growth factor and bovine pituitary extract (Life Technologies). The histology features and origin of all cell lines used have been previously described. Cell lines were authenticated using STR profiling. Cells were grown in a humidified incubator at 37 °C/5% CO2 atmosphere. All cell lines were verified to be free of mycoplasma contamination.
Irradiations were done at room temperature using a ^137Cs source (Gammacell 40 Exactor [MDS Nordion]; dose rate 1.1 Gy/min). Phalloidin-Atto 488 was purchased from Sigma-Aldrich and Hoechst 33342 was purchased from Thermo Fisher Scientific.
For siRNA transfections, cells were transfected with negative control or COMMD4 siRNA #2 (CCAUGUCCCUCUCAGCAGA[dT][dT] MISSION® siRNA, Sigma-Aldrich) using RNAiMax (Life Technologies) as previously described and samples were analysed 48 to 72 h post-transfection. […] Cells were mock-transfected, or transfected with FLAG-H2BWT/FLAG-H2BMUT1, or COMMD4-FLAG/A70K with FuGENE® HD (Promega) using the manufacturer’s protocol and analysed 24 h post-transfection. […]

[3] = test system: COMMD4; assay: FLAG pull-down in control and COMMD4 siRNA depleted cells; format: binding; conditions: overexpressed FLAG-H2B after control or COMMD4 siRNA
Method: as §1
Co-immunoprecipitations were performed as previously summarised, using ice-cold NP40 buffer. Assays for co-immunoprecipitations were performed at 4 °C from HEK293T, transiently expressing the FLAG-H2B WT or MUT plasmid. Proteins were captured using anti-FLAG M2 Dynabeads (ThermoFisher) and washed three times in NP40 buffer prior to analysis.
To support predicted models, we next designed peptides to perform mapping. […]

binding of overexpressed FLAG-H2B construct to COMMD4 [1]: interacted with COMMD4
Substance: FLAG-H2BWT: 10-amino acid peptide cloned into expression vector containing an N-terminal FLAG tag and a C-terminal nuclear localisation signal ({FLAG}-SFVNDIFERIAAKRVKLDS)
sensitivity to ionising radiation (clonogenic viability) [2]: neither hypersensitive to IR
binding to COMMD4 in control or COMMD4 siRNA-depleted cells [3]: binding to COMMD4 was only possible in control siRNA-depleted cells
